Reference: patent US6399618B1, “Compositions and methods for modulating sexual activity” (priority 1997, dated 2002)
Where a name gives a salt, the structure may show the parent alone.

System: male rats
Assay: Rat procopulatory actions (copulatory behavior with receptive female)
Type: in vivo, Long-Evans rats
Description: Male Long-Evans rats (300-600 g; n=15 per group) were injected with saline or XVIb (1.5-30.5 mg/kg; ip) 5 minutes prior to being paired with a female rat sexually receptive by administration of estradiol benzoate (25 μg; 48 hours prior to testing) and progesterone (1 mg/kg; 4 hours prior to testing). Mount latency, intromission latency, ejaculation latency, mounts, intromissions, ejaculations and post ejaculatory interval were recorded over a 30 minutes observation period.
In Table 3, the effect of compound XVIb on copulatory behavior in male rats is shown. Data are expressed as mean (sem for 15 test animals). Latency is the time in seconds to appearance of that behavior. Ejaculations are the number of such events during 30 minutes of observation. Intromissions are the number of such events before ejaculation. Post ejaculatory interval is the time in seconds from ejaculation on intromission to the first mount of the next copulatory sequence. P values derived from two-tailed t-test for significance between mean values (α<0.05).

[1] = 15 mg/kg ip, n=15, 30 minutes observation

In the case of CN1CCN(C(=O)Cc2ccc3ccccc3c2)CC1 [Compound XVIb, 1-Methyl-4(2-naphthaleneacetyl)piperazine monohydrochloride], the “number of intromissions (in words)” value (7.5 mg/kg and 30.5 mg/kg only, data is not shown) was “reducing the number of intromissions”, the Post ejaculatory interval (15 mg/kg ip, n=15) was 426.6 ± 28.5 s and the Ejaculation latency [1] was 330.9 ± 31.5 s. The Intromission latency [1] was 405.1 ± 88.0 s, the Mount latency [1] was 204.5 ± 31.9 s and the Intromissions (15 mg/kg ip, n=15, before ejaculation) was 6.9 ± 0.7. For the same molecule, the ejaculations (15 mg/kg ip, n=15, during 30 minutes of observation) was 4.7 ± 0.2, the “Post ejaculatory interval (in words)” value (any of doses tested (1.5-30.5 mg/kg ip)) was “not affected” and the “copulatory behaviors (in words)” value (doses above and below 15 mg/kg) was “without significant effects”.
